Results published in patent publication US20160051491A1, “NOVEL USE OF PINOSYLVIN FOR ANGIOGENESIS PROMOTION” (INDUSTRY-ACADEMIC COOPERATION FOUNDATION, DANKOOK UNIVERSITY, priority 2013, published 2016).

Assays:
caspase-3 = test: Caspase-3 cleavage (Western blot) and caspase-3 colorimetric activity (Ac-DEVD-pNA) in BAEC lysates; type: cell-based, Bovine; conditions: FIGS. 1C and 1D
Method: Caspase-3 activity was measured with Ac-DEVD-pNA as a substrate using the caspase-3 Colorimetric Activity Assay Kit (Chemicon). Specifically, BAECs were grown to confluency in 20% FBS-DMEM and then starved for more than 8 hours. The cells were treated with various apoptotic agents (100 μM ETO) and then lysed. The cell lysates were reacted in a reaction buffer containing 236 μM Ac-DEVD-pNA with or without specific inhibitors (0.1 μM Ac-DEVD-CHO) in 96-well plates at 37° C. for 2 hours. Then, the caspase-3 activity was determined by measuring the absorbance of the reactions at 405 nm using a microplate reader (Bio-Rad, Model 550).
(§1) The BAECs were grown to confluency in 20% FBS-DMEM, washed with ice-cold PBS, scraped in 250 μL RIPA buffer (50 mM Tris, pH 7.5, 150 mM NaCl, 1% NP-40, 0.5% sodium deoxycholate, and 0.1% SDS), and solubilized for 15 minutes to prepare the cell lysates. All the solubilization procedures were performed at 4° C., and the protein content of the soluble cell lysates was measured using a Bio-Rad DC assay kit (Bio-Rad). The solution lysates (10 μg each) were resolved by SDS-PAGE. The resolved protein bands were then transferred to a polyvinylidene difluoride (PVDF) membrane (Bio-Rad) and probed with p-ERK (cell signaling), p-p38 MAP kinase (cell signaling), p-JNK (cell signaling), p-eNOS (cell signaling), p-Akt (cell signaling) and caspase-3 (cell signaling) for 1 hour to overnight. The membranes were then incubated with a secondary antibody at room temperature for 1 hour, where goat anti-rabbit IgG conjugated to alkaline phosphatase was used as a secondary antibody. Finally, the results were confirmed using a chemiluminescent detection method.

[1] = test system: Bovine aortic endothelial cells (BAECs); test: Etoposide-induced apoptosis, Hoechst 33258 staining of fragmented nuclei; type: cell-based; conditions: FIG. 1B
Method: (§2) Bovine aortic endothelial cells (BAECs) were obtained from the descending thoracic aortas, and maintained in a growth medium (DMEM (1 g/L glucose, Life technologies, Inc.) containing 20% fetal bovine […] (FBS, Atlanta Biologicals) without antibiotics) at 37° C. in 5% CO2. The number of cells used for used in this study was between 3 generations and 10 generations, and they were allowed to grow in untreated culture dishes. Before drug treatment, BAECs were grown to confluency in a 5% CO2 incubator with growth media containing 50 μg/mL penicillin and 50 μg/mL streptomycin. The cells were then starved for between 4 hours and 24 hours in starvation media (DMEM supplemented with 0.5% FBS and 50 μg/mL penicillin and 50 μg/mL streptomycin).
For the apoptotic analysis, the confluent cells were incubated in 0.5% FBS-DMEM containing 0 μM or 100 μM etoposide (ETO, Sigma) or varying amounts of pinosylvin for 36 hours. […]
For Hoechst staining, the confluent cells were incubated with 0.5% FBS-DMEM containing 100 μM ETO without any compound (vehicle control) for 36 hours. […] After incubation, the stained cells were thoroughly washed with PBS and the nuclei were observed under a fluorescence microscope (Zeiss Autoplan 2) to confirm the occurrence of apoptosis.

[2] = test system: Bovine aortic endothelial cells (BAECs); test: Endothelial tube formation on ECM gel; type: cell-based; conditions: FIG. 4B
Method: ECM gel (Cell Biolabs Inc.) was thawed overnight at 4° C. Then, the thawed gel 50 μL was added into each well of the 96-well plates. To form a gel, the 96-well plates were incubated at 37° C. for 1 hour. Then, the BAEC suspension (1.5×10^4 cells/100 μL) containing no pinosylvin, 1 pM pinosylvin, or 1 pM pinosylvin with 2.5 mM L-NAME, in DMEM, respectively, was added into a gel and placed in a 5% CO2 incubator at 37° C. for 12 hours to 18 hours. Then, the endothelial cells were observed under a microscope to confirm tube formation.

Akt = test: Western blotting of p-Akt in BAECs; type: cell-based, Bovine; conditions: 1 pM pinosylvin, 0 to 60 minutes, serum-depleted BAECs, FIG. 2
Method: as §1

ERK = test: Western blotting of p-ERK in BAECs; type: cell-based, Bovine; conditions: 1 pM pinosylvin, 0 to 60 minutes, serum-depleted BAECs, FIG. 2
Method: as §1

[3] = test system: Bovine aortic endothelial cells (BAECs); test: Endothelial cell migration (wound scrape); type: cell-based; conditions: 1 pM pinosylvin, FIG. 4A
Method: Confluent BAECs were treated twice with 2 mM thymidine for 18 hours and wounded with a pipette tip. Then, the cells were incubated in the starvation media for 20 hours with increasing amounts of pinosylvin: 1) no pinosylvin, 2) 1 pM pinosylvin, or 3) 1 pM pinosylvin with 2.5 mM L-NAME, in DMEM, respectively. The migrated cells were observed under a microscope and quantified by counting the number of the migrated cells in the wound area.

[4] = test system: Bovine aortic endothelial cells (BAECs); test: Serum starvation-induced apoptosis of endothelial cells (apoptotic cell count under microscope); type: cell-based
Method: as §2
[…] Since pinosylvin is not commercially available, it was synthesized as described (Park et al., Cell Physiol Biochem. 2011; 27(3-4): 353-62.). […]
Confluent BAECs were starved for more than 4 hours, treated with pinosylvin, and then incubated for an additional period of time (0 hours, 12 hours, 24 hours, and 48 hours) for the evaluation of time-dependent changes in apoptosis. […] For quantification, the present inventors counted the number of apoptotic cells in the same visual field.

[5] = test system: Bovine aortic endothelial cells (BAECs); test: Endothelial cell proliferation (microscopy, WST-1 assay); type: cell-based
Method: as §2
Cell proliferation was measured using a cell viability assay kit (Daeil Lab Service Co., LTD., Seoul, Korea). Specifically, confluent BAECs were serum-starved for 16 hours, and then various concentrations of pinosylvin or 20% serum were added and incubated. The cells were washed more than twice with PBS and reacted with the WST-1 reagent. The live cells were then measured at 450 nm using an ELISA microplate reader (Bio-Rad, Model 550).

JNK = test: Western blotting of p-JNK in BAECs; type: cell-based, Bovine; conditions: 1 pM pinosylvin, 0 to 60 minutes, serum-depleted BAECs, FIG. 2
Method: as §1

eNOS = test: Western blotting of p-eNOS in BAECs; type: cell-based, Bovine; conditions: 1 pM pinosylvin, 0 to 60 minutes, serum-depleted BAECs, FIG. 2
Method: as §1

p38 MAP kinase = test: Western blotting of p-p38 MAP kinase in BAECs; type: cell-based, Bovine; conditions: 1 pM pinosylvin, 0 to 60 minutes, serum-depleted BAECs, FIG. 2
Method: as §1

SMILES | caspase-3 activation (caspase-3; 100 μM ETO) | fragmentation of the nuclei (Hoechst 33258 staining) ([1]; cells treated with 100 μM ETO alone) | effect of tube formation by pinosylvin when treated concurrently with L-NAME ([2]; 1 pM pinosylvin with 2.5 mM L-NAME (eNOS inhibitor)) | tube formation compared to the control group ([2]; 1 pM pinosylvin) | Akt phosphorylation (Akt) | ERK phosphorylation (ERK) | cell migration [3] | starvation-induced apoptosis, apoptotic cells counted per visual field ([4]; 1 pM to 10 μM of pinosylvin, FIG. 1A bottom panel) | serum starvation-induced apoptosis (round and shrunken cells) ([4]; BAECs serum-starved for 72 hours, low dose of pinosylvin, FIG. 1A top panel) | number of cells compared with untreated cells (microscope) ([5]; 1 pM pinosylvin, thirty percent confluent BAECs, FIG. 3A) | cell proliferation, WST-1 assay ([5]; DMEM with none or 20% serum, 24 hours, FIG. 3B) | ETO-induced caspase-3 activation (caspase-3; 1 pM pinosylvin, 100 μM ETO) | starvation-induced caspase-3 activation (caspase-3; 1 pM pinosylvin, serum-depleted cells) | JNK phosphorylation (JNK) | fragmentation of the nuclei (Hoechst 33258 staining), ETO-induced ([1]; 1 pM pinosylvin together with 100 μM ETO) | eNOS phosphorylation (eNOS) | p38 phosphorylation (p38 MAP kinase)
COc1cc([C@@H]2c3cc4c(cc3[C@@H](O[C@@H]3O[C@@H]5CO[C@@H](C)O[C@H]5[C@H](O)[C@H]3O)[C@H]3COC(=O)[C@H]23)OCO4)cc(OC)c1O [ETO, etoposide, reference compound] | activate caspase-3 | detected |  |  |  |  |  |  |  |  |  |  |  |  |  |  | 
Oc1cc(O)cc(/C=C/c2ccccc2)c1 [pinosylvin, 5-[(E)-2-phenylethenyl]benzene-1,3-diol] |  |  | reduced | significantly increase tube formation | substantially promoted | remained largely unchanged | significantly promote cell migration | inhibited | prevent serum starvation-induced apoptosis | increased | promote cell proliferation regardless of the presence of serum | inhibited | inhibited | remained largely unchanged | markedly reduced level | substantially promoted | remained largely unchanged
